“Also recorded” adds a separate entry of the source.
Columns and labels:
[1] = tested on: J20 mouse model of AD; assay: Morris water maze in J20 mouse model of AD; format: in vivo, mice; conditions: for escape latencies in the hidden platform phase: 4-week treatment, 15 mg/kg/day orally, 20 month old J20 mice, data not shown; for MWM performance, escape latencies in the invisible platform phase / percentage of time spent in the right quadrant (memory retention): 10 weeks of treatment; for MWM performance, escape latencies in the invisible platform phase: 15 mg/Kg orally once daily, 21-22 month-old J20 mice, vs saline; for percentage of time spent in the right quadrant (memory retention): platform removed, days 7 and 9, 15 mg/Kg, J20 mice, randomness = 25%
Experimental: Transgenic mice overexpressing human amyloid precursor protein (hAPP) with the Swedish (K670N/M671L) and Indiana (V717F) familial AD mutations under control of the PDGF β-chain promoter were used (J20 line) (Mucke et al, 2000). The mice were on an inbred C57BL/6J genetic background. […] Results were compared with those obtained from age-matched negative littermates (controls). To test the effect of the PDE5 inhibitors in cognition capacity related to aging, a second treatment was carried out using 10-12 month-old non-transgenic (wild type) mice on an inbred C57/B6xSJL genetic background. […] The MWM test was used to evaluate spatial memory as previously described (Hsiao et al., 1996; Reed et al., 2010; Ricobaraza et al., 2009). After treatments, groups of animals underwent spatial reference learning and memory testing in the MWM. The water maze was a circular pool (diameter 1.2 m) filled with water maintained at 20 °C and made opaque by the addition of non-toxic white paint. Mice were trained for three consecutive days (8 trials/day) swimming to a raised platform (visible-platform). No distal visible cues were present during this phase. The same platform location was used for all visible-platform sessions and was changed for the invisible-platform training (submerged 1 cm beneath the surface) conducted over […] (4 trials/day) with all visible distal cues present in this phase. In both visible- and hidden-platform versions, mice were placed pseudo-randomly in selected locations, facing toward the wall of the pool to eliminate the potentially confounding contribution of extramaze spatial cues. Each trial was terminated when the mouse reached the platform or after 60 seconds, whichever came first. To test the retention, three probe trials were performed at the beginning of 4th, 7th, and the last day of the test (day 9). In the probe trials the platform was removed from the pool, and the percentage of time spent in the quadrant where the platform was previously set was recorded. All trials were monitored by a camera above the center of the pool connected to a SMART-LD program (Panlab S.L., Barcelona, Spain) for subsequent analysis of escape latencies, swimming speed, path length and percent time spent in each quadrant of the pool during probe trials. All experimental procedures were performed blind to groups.

[2] = tested on: pAkt; assay: Western blot of pAkt in hippocampus of J20 mice; format: in vivo; conditions: J20 mice treated for 10 weeks, vs saline
Experimental: (§1) Results were compared with those obtained from age-matched negative littermates (controls). To test the effect of the PDE5 inhibitors in cognition capacity related to aging, a second treatment was carried out using 10-12 month-old non-transgenic (wild type) mice on an inbred C57/B6xSJL genetic background.
(§2) Twenty four hours after the fear conditioning test, animals (n=5, per group) were sacrificed and the brains removed for biochemical studies. The cortex and hippocampus were dissected, homogenized, and processed as described below for subsequent western blot analysis. […]
(§3) Total tissue homogenates were obtained by homogenizing the hippocampus in a cold lysis buffer with protease inhibitors (0.2 M NaCl, 0.1 M HEPES, 10% glycerol, 200 mM NaF, 2 mM Na4P2O7, 5 mM EDTA, 1 mM EGTA, 2 mM DTT, 0.5 mM PMSF, 1 mM Na3VO4, 1 mM benzamidine, 10 µg/ml leupeptin, 400 U/ml aprotinin), centrifuged at 14,000 x g 4 °C for 20 minutes and the supernatant was aliquoted and stored at -80 °C. Total protein concentrations were determined using the BioRad Bradford protein assay (BioRad Laboratories).
(§4) Protein samples were mixed with an equal volume of 2 x Laemmli sample buffer, resolved onto SDS-polyacrylamide gels and transferred to nitrocellulose membrane. […] Quantity OneTM software v.4.6.3 (Bio-Rad) was used for quantification.

[3] = tested on: synaptophysin; assay: Western blot of synaptophysin in hippocampus of J20 mice; format: in vivo; conditions: J20 mice treated for 10 weeks
Experimental: as §1, §2, §3, §4

[4] = tested on: GluR2/3; assay: Western blot of GluR2/3 in hippocampus of J20 mice; format: in vivo; conditions: J20 mice treated for 10 weeks
Experimental: as §1, §2, §3, §4

[5] = EMEA scientific discussion for Cialis (WC500026314); cited from earlier work
[6] = tested on: central nervous system (CNS) function; conditions: doses ≤100 mg/kg orally; EMEA assessment report for Adcirca (WC500069602); cited from earlier work
[7] = tested on: maternal-separated rat pups; conditions: Baek et al. (2011); cited from earlier work
[8] = tested on: rat model of embolic stroke; conditions: Zhang et al. (2006); cited from earlier work
[9] = tested on: gerbils; conditions: Ko et al. (2009); cited from earlier work

| Structure (SMILES) | escape latencies in the hidden platform phase [1] | MWM performance, escape latencies in the invisible platform phase [1] | percentage of time spent in the right quadrant (memory retention) [1] | level of pAkt [2] | expression levels of synaptophysin [3] | expression levels of GluR2/3 [4] | MWM performance, escape latencies in the invisible platform phase ([1]; 15 mg/kg) | observed in the central nervous system [5] | effects on central nervous system (CNS) function [6] | depressive symptoms, memory impairment, apoptosis and cell proliferation in the hippocampus [7] | neurological functional recovery [8] | short-term memory [9] |
| --- | --- | --- | --- | --- | --- | --- | --- | --- | --- | --- | --- | --- |
| CCCc1nn(C)c2c(=O)[nH]c(-c3cc(S(=O)(=O)N4CCN(C)CC4)ccc3OCC)nc12 [sildenafil] | no significant differences were detected | markedly improves the performance | higher than 25% | reduction was reverted | recovered the low expression levels | recovered the low expression levels |  |  |  |  |  |  |
| CN1CC(=O)N2[C@H](c3ccc4c(c3)OCO4)c3[nH]c4ccccc4c3C[C@@H]2C1=O [tadalafil, (6R-trans)-6-(1,3-benzodioxol-5-yl)-2,3,6,7,12,12a-hexahydro-2-methyl-pyrazino [1',2':1,6] pyrido [3,4-b]indole-1,4-dione] | no significant differences were detected |  | higher than 25% | reduction was reverted; also recorded: higher than that of sildenafil | recovered the low expression levels | recovered the low expression levels | even better than those of non-transgenic mice; also recorded: cognitive improvement was higher in the group of tadalafil than in the group of sildenafil; also recorded: markedly improves the performance | not observed | no effects | improves depressive symptoms, ameliorates memory impairment, as well as suppresses apoptosis and enhances cell proliferation | improves neurological functional recovery | improves short-term memory |

From patent EP2535049A1 (Proyecto de Biomedicina Cima, S.L., priority 2011, dated 2012)
